According to ChEMBL document CHEMBL4184170, “New Caspase-1 inhibitor by scaffold hopping into bio-inspired 3D-fragment space” (Bioorg Med Chem Lett, 2017):
pIC50: −log10 of the molar value.

Tests used:
[1] = Lipophilicity, log D of the compound at pH 6.5 by chromatographic method; format: physicochemical; details: buffer
[2] = biological target: T1, Caspase-1 (Homo sapiens, UniProt P29466); test: Inhibition of caspase1 in human THP1 cells assessed as LPS/ATP-induced IL-1beta release preincubated for 24 hrs in presence of LPS measured after overnight incubation by HTRF assay; format: cell-based
T1 sequence (P29466 whole entry): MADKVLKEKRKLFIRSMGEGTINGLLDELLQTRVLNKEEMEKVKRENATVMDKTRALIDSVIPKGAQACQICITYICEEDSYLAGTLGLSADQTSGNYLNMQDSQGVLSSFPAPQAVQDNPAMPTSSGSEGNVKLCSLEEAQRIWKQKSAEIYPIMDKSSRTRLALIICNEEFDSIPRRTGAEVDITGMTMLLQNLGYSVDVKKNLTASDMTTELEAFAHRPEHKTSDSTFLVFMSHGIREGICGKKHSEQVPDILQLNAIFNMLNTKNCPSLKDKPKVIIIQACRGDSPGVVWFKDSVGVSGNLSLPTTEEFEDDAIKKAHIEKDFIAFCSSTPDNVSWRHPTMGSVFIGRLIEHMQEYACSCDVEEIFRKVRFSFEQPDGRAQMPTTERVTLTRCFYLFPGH

[3] = Fraction unbound in human plasma at 5 uM after 4 hrs by LC-MS/MS-based equilibrium dialysis method; format: ADME, cell-free
[4] = biological target: T1, Caspase-1; test: Inhibition of human recombinant caspase1 expressed in Escherichia coli using AC-WEHD-AMC as substrate after 20 mins by fluorescence assay

chromatographic logD [1]	pIC50 [2]	fraction unbound at 4 h, 5 µM [3]	pIC50 [4]	Structure (SMILES)
2.1	7.07	0.12	7.77	CC(C)[C@H](NC(=O)c1ccc2ccccc2c1)C(=O)N1[C@H]2CC[C@](O)(CC2)[C@H]1C(=O)N[C@H]1CC(=O)OC1O (stereo partly specified)
–	–	–	7.96	O=C1C[C@H](NC(=O)[C@@H]2CC[C@@H]3CCCC[C@H](NC(=O)c4nccc5ccccc45)C(=O)N32)C(O)O1 (stereo partly specified)
–	–	–	8.30	CC(C)(C)[C@H](NC(=O)c1ccc(N)c(Cl)c1)C(=O)N1CCC[C@H]1C(=O)N[C@H]1CC(=O)OC1O (stereo partly specified)
